Data from patent US12435128B2, “Method for predicting therapeutic effect of LSD1 inhibitor based on expression of INSM1” (TAIHO PHARMACEUTICAL CO., LTD., priority 2017, dated 2025).
Counter-ions that a name gives are not always drawn. Like-named read-outs stand apart in the source and are kept apart here.

Columns and labels:
Assay type in all cases: cell-based
[1] = system: NCI-H146 cells (human small-cell lung cancer cell lines); assay: Cell-growth inhibition test: NCI-H146 cells
Protocol: (§1) Under the following conditions, an in vitro cell-growth inhibition test was performed with respect to HEL cells (human acute myelocytic leukemia cell lines), NCI-H1417 cells (human small-cell lung cancer cell lines), and NCI-H146 cells (human small-cell lung cancer cell lines).
(§2) The cells with the Example compound or with dimethylsulfoxide alone were cultured at 37° C. in a 5% carbon-dioxide-containing incubator for 5 days (HEL cells) or 10 days (NCI-H1417 cells and NCI-H146 cells). After culture, the plate was allowed to stand at room temperature for 30 minutes, and 100 μL of the supernatant was removed from each well to leave 100 μL of the cell culture solution. To each well containing the remaining 100 μL of the cell culture solution, the same amount of CellTiter-Glo 2.0 Assay (Promega, Cat #: G9242) was added. The microplate was shaken with a plate mixer for 1 minute and then allowed to stand in a dark place for 10 minutes. Thereafter, the luminescence intensity of viable cells in each well was measured using a microplate reader (PerkinElmer, EnSpire). […] Cell growth rate(%)=T/C×100 • T: The luminescence intensity in a well to which the test compound was added (count per second) • C: The luminescence intensity in a well to which dimethylsulfoxide alone was added (count per second)

[2] = system: HEL cells (human acute myelocytic leukemia cell lines); assay: Cell-growth inhibition test: HEL cells; settings: read-out: IC50 (nM), Cell-Growth Inhibition Test: HEL Cells
Protocol: as §1, §2

[3] = system: NCI-H1417 cells (human small-cell lung cancer cell lines); assay: Cell-growth inhibition test: NCI-H1417 cells
Protocol: as §1, §2

[4] = Homo sapiens, NCI-H146, read-out: IC50 (nM), Cell-Growth Inhibition Test: NCI-H146 Cells
[5] = read-out: IC50 (nM), Cell-Growth Inhibition Test: NCI-H1417 Cells
[6] = NCI-H146 cells, read-out: IC50 (nM), Cell-Growth Inhibition Test: NCI-H146 Cells

SMILES	IC50 [1, 4]	IC50 [2]	IC50 [3, 5]	IC50 [1, 6]	IC50 ([2]; Homo sapiens, HEL)	IC50 ([3]; Homo sapiens, NCI-H1417, read-out: IC50 (nM), Cell-Growth Inhibition Test: NCI-H1417 Cells)
CC(C)(O)Cn1ncc2cc(-c3ccc(C(=O)N4[C@@H]5CC[C@H]4[C@@H](N)C5)cc3-c3ccc(C#N)c(F)c3)c(F)c(F)c21 (relative stereo) [Example 195, 5′-((1S,2S,4R)-rel-2-amino-7-azabicyclo[2.2.1]heptane-7-carbonyl)-2′-(6,7-difluoro-1-(2-hydroxy-2-methylpropyl)-1H-indazol-5-yl)-3-fluoro-[1,1′-biphenyl]-4-carbonitrile]	1.28 nM	–	–	–	–	–
Cc1noc2cc(-c3ccc(C(=O)N4[C@@H]5CC[C@H]4[C@@H](N)C5)cc3-c3ccc(C#N)c(F)c3)c(F)cc12 (single isomer, unassigned) [Example 202]	–	0.24 nM	0.62 nM	0.73 nM	–	–
CCC(O)(CC)Cn1ncc2cc(-c3ccc(C(=O)N4[C@@H]5CC[C@H]4[C@@H](N)C5)cc3-c3ccc(C#N)c(F)c3)c(F)cc21 (single isomer, unassigned) [Example 206]	–	0.4 nM	0.95 nM	1.09 nM	–	–
CC(C)(O)Cn1nnc2cc(-c3ccc(C(=O)N4[C@@H]5CC[C@H]4[C@@H](N)C5)cc3-c3ccc(C#N)c(F)c3)c(F)c(Cl)c21 (single isomer, unassigned) [Example 209]	–	0.24 nM	–	0.22 nM	–	–
CCC(O)(CC)Cn1nnc2cc(-c3ccc(C(=O)N4[C@@H]5CC[C@H]4[C@@H](N)C5)cc3-c3ccc(C#N)c(F)c3)c(F)c(Cl)c21 (single isomer, unassigned) [Example 218]	–	0.22 nM	0.21 nM	0.33 nM	–	–
CC(C)(O)CC1OCc2cc(-c3ccc(C(=O)N4[C@@H]5CC[C@H]4[C@@H](N)C5)cc3-c3ccc(C#N)c(F)c3)c(F)cc21 (single isomer, unassigned) [Example 226]	–	2.56 nM	5.36 nM	10.1 nM	–	–
Cc1c(F)c(-c2ccc(C(=O)N3[C@@H]4CC[C@H]3[C@@H](N)C4)cc2-c2ccc(C#N)c(F)c2)cc2nnn(CC(C)(C)O)c12 (single isomer, unassigned) [Example 228]	–	0.68 nM	0.3 nM	0.51 nM	–	–
Cn1cc(C(N)=O)c2cc(-c3ccc(C(=O)N4[C@@H]5CC[C@H]4[C@@H](N)C5)cc3-c3ccc(C#N)c(F)c3)c(F)cc21 (single isomer, unassigned) [Example 236]	–	–	11 nM	28.5 nM	–	–
CNC(=O)c1cn(C)c2cc(F)c(-c3ccc(C(=O)N4[C@@H]5CC[C@H]4[C@@H](N)C5)cc3-c3ccc(C#N)c(F)c3)cc12 (single isomer, unassigned) [Example 237]	–	28.5 nM	6.63 nM	5.14 nM	–	–
CN(C)C(=O)c1cn(C)c2cc(F)c(-c3ccc(C(=O)N4[C@@H]5CC[C@H]4[C@@H](N)C5)cc3-c3ccc(C#N)c(F)c3)cc12 (single isomer, unassigned) [Example 238]	–	26.1 nM	10.8 nM	17.7 nM	–	–
CC(C)(O)Cn1nnc2cc(-c3ccc(C(=O)N4[C@@H]5CC[C@H]4[C@@H](N)C5)cc3-c3ccc(C#N)c(F)c3)c(F)c(C#N)c21 (single isomer, unassigned) [Example 247]	–	3.02 nM	1.4 nM	3.84 nM	–	–
N#Cc1ccc(-c2cc(C(=O)N3[C@@H]4CC[C@H]3[C@@H](N)C4)ccc2-c2cc3nnn(CC4(O)CCC4)c3c(F)c2F)cc1F (single isomer, unassigned) [Example 254]	–	0.2 nM	0.18 nM	0.36 nM	–	–
N#Cc1ccc(-c2cc(C(=O)N3[C@@H]4CC[C@H]3[C@@H](N)C4)ccc2-c2cc3nnn(CC4(O)CCC4)c3c(Cl)c2F)cc1F (single isomer, unassigned) [Example 257]	–	0.13 nM	–	0.39 nM	–	–
N#Cc1ccc(-c2cc(C(=O)N3[C@@H]4CC[C@H]3[C@@H](N)C4)ccc2-c2cc3nnn(CC4(O)CCC4)c3c(C(F)F)c2F)cc1F (single isomer, unassigned) [Example 260]	–	0.13 nM	0.13 nM	0.48 nM	–	–
N#Cc1ccc(-c2cc(C(=O)N3[C@@H]4CC[C@H]3[C@@H](N)C4)ccc2-c2cc3nnn(CC4(O)CCC4)c3c(C#N)c2F)cc1F (single isomer, unassigned) [Example 264]	–	0.84 nM	0.3 nM	0.96 nM	–	–
CC(C)(O)Cn1nnc2cc(-c3ccc(C(=O)N4[C@@H]5CC[C@H]4[C@@H](N)C5)cc3-c3ccc(C#N)c(F)c3)c(F)c(Br)c21 (single isomer, unassigned) [Example 273]	–	0.27 nM	–	0.63 nM	–	–
Cc1ccc(-c2ccc(CN3[C@@H]4CC[C@H]3[C@@H](N)C4)cc2-c2ccc(C#N)c(F)c2)c(F)c1 (single isomer, unassigned) [Example 283]	–	0.79 nM	2.1 nM	11.1 nM	–	–
CC(C)(O)Cn1nnc2cc(-c3ccc(CN4[C@@H]5CC[C@H]4[C@@H](N)C5)cc3-c3ccc(C#N)c(F)c3)c(F)c(F)c21.Cl.Cl (single isomer, unassigned) [Example 285, dihydrochloride]	–	0.046 nM	0.09 nM	0.49 nM	–	–
N#Cc1ccc(-c2cc(CN3[C@@H]4CC[C@H]3[C@@H](N)C4)ccc2-c2cc3nnn(CC4(O)CCC4)c3c(Cl)c2F)cc1F (single isomer, unassigned) [Example 286, dihydrochloride]	–	0.036 nM	0.083 nM	0.17 nM	–	–
CC(C)(O)Cn1ncc2cc(-c3ccc(CN4[C@@H]5CC[C@H]4[C@@H](N)C5)cc3-c3ccc(C#N)c(F)c3)c(F)cc21 (single isomer, unassigned) [Example 287, dihydrochloride]	–	–	0.1 nM	0.2 nM	–	–
CCC(O)(CC)Cn1nnc2cc(-c3ccc(CN4[C@@H]5CC[C@H]4[C@@H](N)C5)cc3-c3ccc(C#N)c(F)c3)c(F)c(Cl)c21 (single isomer, unassigned) [Example 288, dihydrochloride]	–	0.062 nM	0.22 nM	1.29 nM	–	–
CC(C)(O)Cc1ccc(-c2ccc(CN3[C@@H]4CC[C@H]3[C@@H](N)C4)cc2-c2ccc(C#N)c(F)c2)c(F)c1 (single isomer, unassigned) [Example 290, dihydrochloride]	–	–	1.06 nM	2.12 nM	–	–
CC(C)(O)Cn1ncc2cc(-c3ccc(C(=O)N4C5CCC4CC(N)C5)cc3-c3ccc(C#N)c(F)c3)c(F)cc21 (stereo not drawn) [Example 142, 5′-((3-endo)-3-amino-8-azabicyclo[3.2.1]octane-8-carbonyl)-3-fluoro-2′-(6-fluoro-1-(2-hydroxy-2-methylpropyl)-1H-indazol-5-yl)-[1,1′-biphenyl]-4-carbonitrile]	–	3.88 nM	3.79 nM	–	–	–
COCCc1ccc(-c2ccc(C(=O)N3CCCC(N)CC3)cc2-c2ccc(C#N)c(F)c2)c(F)c1 (stereo not drawn) [Example 165, 5′-(4-aminoazepan-1-carbonyl)-2″,3-difluoro-4″-(2-methoxyethyl)-[1,1′:2′,1″-terphenyl]-4-carbonitrile]	–	–	–	–	0.62 nM	1.42 nM
N#Cc1ccc(-c2cc(C(=O)N3CC[C@H](N)C3)ccc2-c2cc3nnn(CC4(O)CCC4)c3c(C(F)F)c2F)cc1F [Example 261, (S)-5′-(3-aminopyrrolidine-1-carbonyl)-2′-(7-(difluoromethyl)-6-fluoro-1-((1-hydroxycyclobutyl)methyl)-1H-benzo[d][1,2,3]triazol-5-yl)-3-fluoro-[1,1′-biphenyl]-4-carbonitrile]	32.3 nM	–	–	–	–	–
